# Results as given in US20240197869A1, “HYPERACTIVATORS OF MAMMALIAN DENDRITIC CELLS” (Corner Therapeutics, Inc., priority 2021, published 2024).
# Key:
# [1] = test system: human monocyte-derived dendritic cells (moDCs); assay: Lipid titration: IL-1β secretion by LPS-activated human moDCs; format: cell-based
# Procedure: (§1) Quantification of IL-1beta Secretion. IL-1beta secretion was assessed using the ELISA MAX Deluxe Set Human IL-1beta kit (Biolegend). ELISAs were performed according to manufacturer's instructions with the following modifications: i) total sample volume for incubation was reduced from […] the top standard was prepared at […], with two-fold dilutions to […]; and iii) sample incubation was completed overnight at 4 C on an orbital shaker. […] To determine IL-1beta concentration in supernatants, sample IL-1beta concentrations were interpolated using a standard curve via 4PL analysis on GraphPad Prism 9 (GraphPad Software). The interpolated results of samples were then adjusted for any dilutions made to the supernatant.
# [2] = test system: human monocyte-derived dendritic cells (moDCs); assay: DAMP screen: viability of human moDCs (CellTiter-Glo)
# Procedure: Danger-Associated Molecular Pattern (DAMP) Screen. After 6 days of differentiation into moDC, cells were collected and counted. Cells were plated at 100,000 cells/well in R10 media in 96-well flat bottom tissue culture-treated plates. LPS, serotype O55:B5 (Enzo Life Sciences) was added to a final concentration of 1 μg/mL in each well. […] Cells were incubated at 37° C., 5% CO2 for two days. Cell cultures were then used for endpoint analyses.
# Endpoint Analyses. After culturing moDCs with PAMPs and DAMPs for two days, supernatant and cell samples were collected for analysis.
# (§2) Quantification of Cell Viability. Cell viability was assessed by quantifying the presence of ATP as an indicator of metabolically active cells using the CellTiter-Glo Luminescent Cell Viability Assay (Promega). Metabolic activity was assessed following manufacturer's instructions. The CellTiter-Glo reagent was mixed with the cell pellets and remaining supernatant, and transferred to a white, opaque 96-well plate. Luminescence was measured on all wavelengths on a Spectramax iD3 plate reader (Molecular Devices) using an integration time of 500 ms. Percent viability was calculated relative to the control condition of moDCs treated with LPS.
# [3] = test system: human monocyte-derived dendritic cells (moDCs); assay: DAMP screen: IL-1β secretion by LPS-activated human moDCs (ELISA); format: cell-based
# Procedure: Danger-Associated Molecular Pattern (DAMP) Screen.
# as §1
# [4] = test system: human monocyte-derived dendritic cells (moDCs); assay: Lipid titration: viability of human moDCs (CellTiter-Glo)
# Procedure: Lipid Titration. After 6 days of differentiation into moDC, cells were collected and counted. Cells were replated at 100,000 cells/well in R10 media in 96-well flat bottom tissue culture-treated plates. LPS, serotype 055:B5 (Enzo Life Sciences) was added to a final concentration of 1 μg/mL in each well. After the addition of LPS, lipids were prepared. […] After two days of culture, cell cultures were used for endpoint analyses.
# Endpoint Analyses. After culturing moDCs with PAMPs and DAMPs for two days, supernatant and cell samples were collected for analysis. Cells in culture were pelleted by centrifugation at 400×g for 5 min.
# as §2
# Statistical Analyses. […] For each tested condition, cells from each donor were plated to be tested in triplicate.
# [5] = test system: human memory CD4+ T cells; assay: Human moDC coculture with memory CD4 T cells: cytokine secretion; format: cell-based; conditions: moDC treated with R848 + lipid; limiting anti-CD3; 2 days after T cell addition
# Excerpt: Human moDC coculture with memory CD4 T cells. Human monocytes were isolated from leukopheresis products using Miltenyi StraightFrom LeukoPak CD14 microbeads as directed by manufacturer. Custom PBMC isolation microbead kits from Miltenyi were used to separate PBMCs from red blood cells and granulocytes from the same blood products. After PBMC purification, Miltenyi human memory CD4+ T cell isolation kits were used to negatively select the CD45RO+ fraction. Cells were cryogenically stored until ready for use in experiments.
# Human monocytes were differentiated into dendritic cells as previously described using recombinant human GM-CSF and IL-4 for 6 days. moDCs were plated in R10 media at 5E4 cells/well into 96-well U-bottom microplates for hyperactivations. […] T cell stimulating anti-CD3 antibody was added into the culture (with or without blocking anti-IL-1beta antibody) prior to T cell addition. Autologous frozen memory CD4 T cells were thawed, resuspended in R10 media and added at 2.5×10^5 cells/well (ratio 1:5, DC:T cell). After two days incubation, cell culture supernatant was collected and used for measuring cytokine secretion. Commercially available kits such as Biolegend LegendPlex kits were used as directed by manufacturer's protocol to quantify cytokines of interest.
# Four donors were tested with each experimental condition tested in triplicate. […]
# [6] = 82.5 μM lipid + LPS, selected lipids, Table 1-3 (repeats Table 1-1)
structure (smiles),measurement,setting,value
CCCCCCCCCC(=O)OC[C@@H](O)COP(=O)([O-])OCC[N+](C)(C)C [10:0 LYSO PC],IL-1β secretion,"[1]; 10.3 μM lipid + LPS 1 μg/mL, 2 days, Table 1-5",35.7 pg/mL
same,IL-1β secretion,"[1]; 20.6 μM lipid + LPS, human moDCs, 4 donors, mean (SD in wrapped line below)",35.2 pg/mL
same,Activity Units (AU) ± SD (lipid activity index),"[1]; reciprocal of lowest concentration giving IL-1β two-fold over LPS x highest IL-1β signal, lipid 1.3-82.5 μM + LPS",0.00 ± 0.00 AU
same,Relative Viability (%) ± SD,"[2]; 41.3 μM lipid + LPS 1 μg/mL, 2 days, relative to LPS-treated moDCs, Table 1-2",97.8%
same,Relative Viability (%) ± SD,"[2]; 82.5 μM lipid + LPS 1 μg/mL, 2 days, relative to LPS-treated moDCs, Table 1-1",95.2%
same,Relative Viability (%) ± SD,[2]; [6],95.2%
same,IL-1β secretion,"[3]; 41.3 μM lipid + LPS 1 μg/mL, 2 days, Table 1-2",33.3 pg/mL
same,IL-1β secretion,[3]; [6],37.8 pg/mL
same,Relative Viability (%) ± SD,"[4]; 10.3 μM lipid + LPS 1 μg/mL, 2 days, relative to LPS-treated moDCs, Table 1-5",100.5%
same,Relative Viability (%) ± SD,"[4]; 20.6 μM lipid + LPS, human moDCs, 4 donors, relative to LPS alone",100.4%
same,IFN-gamma (Th1 response) from cocultured memory CD4 T cells (in words),[5],not detected
